The results in this text go back to PubChem BioAssay AID330 (DTP/NCI, 2004).

This experiment concerns P388 leukemia ip, CD2F1 mice, survival T/C. Briefly: NCI In Vivo Anticancer Drug Screen. Data for tumor model P388 Leukemia (intraperitoneal) in CD2F1 (CDF1) mice. To be noted: endpoint: median survival time, higher = longer survival. Summed up:
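Mice carrying the transplanted tumor received test compound or vehicle. Survival was recorded in each group, and the value is the treated-group measurement divided by that of the vehicle-treated control group.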

The mark [1] stands for this setting: dose: 50.0 mg/kg/injection, schedule: Q01DX009 (ip), vehicle: saline with Tween-80.
Setting [2] is: dose: 100.0 mg/kg/injection, schedule: Q01DX009 (ip), vehicle: saline with Tween-80.
Where [3] appears, read: dose: 200.0 mg/kg/injection, schedule: Q01DX009 (ip), vehicle: saline with Tween-80.
Setting [4] is: dose: 50.0 mg/kg/injection, schedule: Q01DX005 (ip), vehicle: Klucel (hydroxypropylcellulose) (HPC).
Setting [5] is: dose: 100.0 mg/kg/injection, schedule: Q01DX005 (ip), vehicle: Klucel (hydroxypropylcellulose) (HPC).
Setting [6] is: dose: 200.0 mg/kg/injection, schedule: Q01DX005 (ip), vehicle: Klucel (hydroxypropylcellulose) (HPC).
Setting [7] is: dose: 50.0 mg/kg/injection, schedule: Q01DX005 (ip), vehicle: saline with Tween-80.
Where [8] appears, read: dose: 100.0 mg/kg/injection, schedule: Q01DX005 (ip), vehicle: saline with Tween-80.
Setting [9] is: dose: 200.0 mg/kg/injection, schedule: Q01DX005 (ip), vehicle: saline with Tween-80.
The mark [10] stands for this setting: dose: 25.0 mg/kg/injection, schedule: Q01DX009 (ip), vehicle: saline with Tween-80.

“And” between values parts separate entries of the source, which are not always exact repeats. Equal values may be shown once. Inconclusive results and toxic doses are left out.

Take `CCOC1(C)OC2OC(COC(c3ccccc3)(c3ccccc3)c3ccccc3)C(O)C(O)C2O1` (stereo unspecified): the T/C runs as follows: (dose: 12.5 mg/kg/injection, schedule: Q01DX009 (ip), vehicle: other) 97 % of control; (dose: 25.0 mg/kg/injection, schedule: Q01DX009 (ip), vehicle: other) 97 % of control; (dose: 50.0 mg/kg/injection, schedule: Q01DX009 (ip), vehicle: other) 95 % of control; (dose: 100.0 mg/kg/injection, schedule: Q01DX009 (ip), vehicle: other) 98 % of control; (dose: 200.0 mg/kg/injection, schedule: Q01DX009 (ip), vehicle: other) 98 % of control.
As for `O=C(O)c1ccc2c(c1)C(=O)c1c(O)ccc(O)c1C2=O`, the T/C under setting [1] is 92 % of control, the T/C under setting [2] is 103 % of control and the T/C under setting [3] is 103 % of control.
As for `NC(Cc1ccc2c(c1)OCO2)c1ccc2c(c1)OCO2` (stereo unspecified), the T/C under setting [4] is 101 % of control, the T/C under setting [5] is 99 % of control and the T/C under setting [6] is 101 % of control.
Take `O=C(Oc1ccc[nH]c1=O)c1ccc(F)cc1`: the T/C by setting is: (dose: 50.0 mg/kg/injection, schedule: Q01DX009 (ip), vehicle: saline) 99 % of control and 104 % of control; (dose: 100.0 mg/kg/injection, schedule: Q01DX009 (ip), vehicle: saline) 100 % of control and 101 % of control; (dose: 200.0 mg/kg/injection, schedule: Q01DX009 (ip), vehicle: saline) 106 % of control and 108 % of control; (dose: 400.0 mg/kg/injection, schedule: Q01DX009 (ip), vehicle: saline) 111 % of control.
Consider `CC(NNC(=S)N1CC2CCC(CC2)C1)c1nccc2ccccc12` (stereo unspecified), for which the T/C runs as follows: (dose: 12.5 mg/kg/injection, schedule: Q01DX005 (ip), vehicle: saline with Tween-80) 110 % of control; (dose: 25.0 mg/kg/injection, schedule: Q01DX005 (ip), vehicle: saline with Tween-80) 103 % of control; under setting [7], 119 % of control.
In the case of `COC(=O)c1cc(-c2ccccc2Cl)n2c(N)nnc2n1`, the T/C reads like this: (dose: 60.0 mg/kg/injection, schedule: Q01DX005 (ip), vehicle: saline with Tween-80) 118 % of control; (dose: 120.0 mg/kg/injection, schedule: Q01DX005 (ip), vehicle: saline with Tween-80) 105 % of control; (dose: 240.0 mg/kg/injection, schedule: Q01DX005 (ip), vehicle: saline with Tween-80) 101 % of control.
Take `CC1=NNC(=O)C1(Br)Br`: the T/C by setting is: (dose: 3.13 mg/kg/injection, schedule: Q01DX009 (ip), vehicle: Klucel (hydroxypropylcellulose) (HPC)) 90 % of control; (dose: 6.25 mg/kg/injection, schedule: Q01DX009 (ip), vehicle: Klucel (hydroxypropylcellulose) (HPC)) 100 % of control; (dose: 12.5 mg/kg/injection, schedule: Q01DX009 (ip), vehicle: Klucel (hydroxypropylcellulose) (HPC)) 100 % of control.
Regarding `O=C(O)c1c2c(nc3ccccc13)-c1ccccc1C2`, the T/C by setting is: under setting [4], 102 % of control; under setting [5], 93 % of control; under setting [6], 89 % of control.
For the molecule `NC(=O)NN(Cc1ccc(Br)cc1)N=O`, the T/C is, setting by setting: (dose: 100.0 mg/kg/injection, schedule: Q01DX001 (ip), vehicle: Klucel (hydroxypropylcellulose) (HPC)) 96 % of control; (dose: 200.0 mg/kg/injection, schedule: Q01DX001 (ip), vehicle: Klucel (hydroxypropylcellulose) (HPC)) 97 % of control; (dose: 400.0 mg/kg/injection, schedule: Q01DX001 (ip), vehicle: Klucel (hydroxypropylcellulose) (HPC)) 97 % of control.
As to `COC(=O)/C=C/NC(=O)c1ccccc1C(=O)OC`, the T/C is 98 % of control (dose: 25.0 mg/kg/injection, schedule: Q01DX009 (ip), vehicle: suspension in saline); 100 % of control (dose: 50.0 mg/kg/injection, schedule: Q01DX009 (ip), vehicle: suspension in saline); 100 % of control (dose: 100.0 mg/kg/injection, schedule: Q01DX009 (ip), vehicle: suspension in saline); 100 % of control (dose: 200.0 mg/kg/injection, schedule: Q01DX009 (ip), vehicle: suspension in saline).
For `CC(CCc1ccc2c(c1)OCO2)NCC(O)c1ccc(O)c(C(N)=O)c1` (stereo unspecified), the T/C runs as follows: (dose: 50.0 mg/kg/injection, schedule: Q01DX009 (ip), vehicle: Klucel (hydroxypropylcellulose) (HPC)) 93 % of control; (dose: 100.0 mg/kg/injection, schedule: Q01DX009 (ip), vehicle: Klucel (hydroxypropylcellulose) (HPC)) 94 % of control; (dose: 200.0 mg/kg/injection, schedule: Q01DX009 (ip), vehicle: Klucel (hydroxypropylcellulose) (HPC)) 100 % of control.
In the case of `Cc1ccc(S(=O)(=O)C23C(N=NC2(C)C)C3(C)C)cc1` (stereo unspecified), the T/C by setting is: under setting [4], 103 % of control; under setting [5], 103 % of control; under setting [6], 100 % of control.
Regarding `CN1CC(C2(O)CCN(C)C2=O)C(O)C1=O` (stereo unspecified), the T/C by setting is: (dose: 100.0 mg/kg/injection, schedule: Q01DX001 (ip), vehicle: saline) 104 % of control; (dose: 200.0 mg/kg/injection, schedule: Q01DX001 (ip), vehicle: saline) 97 % of control.
Regarding `Cc1ccccc1N1CCOS(=O)OC(C)C1` (stereo unspecified), the T/C reads like this: under setting [7], 100 % of control; under setting [8], 104 % of control; under setting [9], 100 % of control.
`O=c1oc2c3c4c(cc2c2c1CCC2)CCCN4CCC3`: the T/C was 102 % of control (dose: 100.0 mg/kg/injection, schedule: Q04DX003 (ip), vehicle: Klucel (hydroxypropylcellulose) (HPC)); 101 % of control (dose: 200.0 mg/kg/injection, schedule: Q04DX003 (ip), vehicle: Klucel (hydroxypropylcellulose) (HPC)); 100 % of control (dose: 400.0 mg/kg/injection, schedule: Q04DX003 (ip), vehicle: Klucel (hydroxypropylcellulose) (HPC)).
As to `ClC1CCCCC1C(C1CCCCC1)C1CCCCC1` (stereo unspecified), the T/C under setting [7] is 98 % of control and the T/C under setting [8] is 100 % of control.
For the molecule `CCOC(=O)C=C1CCC2(CC1)SCCS2`, the T/C (dose: 100.0 mg/kg/injection, schedule: Q01DX001 (ip), vehicle: other) is 104 % of control; the T/C (dose: 200.0 mg/kg/injection, schedule: Q01DX001 (ip), vehicle: other) was 114 % of control; the T/C (dose: 400.0 mg/kg/injection, schedule: Q01DX001 (ip), vehicle: other) was 117 % of control.
Regarding `Cc1c([N+](=O)[O-])c(=O)oc2ccc3c(=O)ccoc3c12`, the T/C is 98 % of control under setting [7], 96 % of control under setting [8] and 99 % of control under setting [9].
Regarding `O=S(=O)(c1cccc(N=C=S)c1)c1cccc(N=C=S)c1`, the T/C is 123 % of control (dose: 6.25 mg/kg/injection, schedule: Q01DX005 (ip), vehicle: Klucel (hydroxypropylcellulose) (HPC)); 117 % of control and 123 % of control (dose: 12.5 mg/kg/injection, schedule: Q01DX005 (ip), vehicle: Klucel (hydroxypropylcellulose) (HPC)); 123 % of control (dose: 25.0 mg/kg/injection, schedule: Q01DX005 (ip), vehicle: Klucel (hydroxypropylcellulose) (HPC)); 103 % of control under setting [4].
Take `CC(C)Cc1nccs1`: the T/C is, setting by setting: under setting [10], 105 % of control; under setting [1], 105 % of control and 110 % of control; under setting [2], 106 % of control and 117 % of control; under setting [3], 118 % of control.
Turning to `O=C(Nc1ccc(C2=NCCCN2)cc1)c1ccc(NC(=O)c2ccc(C3=NCCCN3)cc2)cc1`, the T/C was 200 % of control (dose: 5.0 mg/kg/injection, schedule: Q01DX009 (ip), vehicle: saline); 250 % of control (dose: 10.0 mg/kg/injection, schedule: Q01DX009 (ip), vehicle: saline); 160 % of control (dose: 12.5 mg/kg/injection, schedule: Q04DX003 (ip), vehicle: saline); 186 % of control (dose: 20.0 mg/kg/injection, schedule: Q04DX003 (ip), vehicle: saline with Tween-80); 109 % of control (dose: 375.0 micrograms/kg/injection, schedule: Q04DX003 (ip), vehicle: saline); 100 % of control (dose: 750.0 micrograms/kg/injection, schedule: Q04DX003 (ip), vehicle: saline). Besides, for the setting “dose: 1500.0 micrograms/kg/injection, schedule: Q04DX003 (ip), vehicle: saline”, the T/C was 109 % of control.
In the case of `CCCCCCC(=O)/C=C/c1ccc(OC(=O)c2ccc(OC)cc2)cc1`, the T/C is, setting by setting: (dose: 6.25 mg/kg/injection, schedule: Q01DX009 (ip), vehicle: saline with Tween-80) 100 % of control; (dose: 12.5 mg/kg/injection, schedule: Q01DX009 (ip), vehicle: saline with Tween-80) 105 % of control; under setting [10], 98 % of control; under setting [1], 91 % of control; under setting [2], 89 % of control.
